In PubChem BioAssay AID212 (DTP/NCI, 2004) one finds T/C data, which are given here for 14 molecules.

Where “and” joins values, the source holds several entries; their conditions need not be identical. Equal values may be shown once. Inconclusive results are not listed.

For the assay, the system named is BDF1 mice, colon carcinoma 38 sc, T/C %. Kind of assay: NCI In Vivo Anticancer Drug Screen. Data for tumor model Colon Carcinoma 38 (subcutaneous) in B6D2F1 (BDF1) mice. The conditions noted are these: endpoint: median tumor weight (est.), higher = larger tumour. The method, boiled down: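 Mice with transplanted tumors are treated with compound or vehicle. Survival or tumor size is then measured in both groups. The ratio of treated to control gives the reported figure.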

[1] abbreviates: dose: 400.0 mg/kg/injection, schedule: Q07DX002 (ip), vehicle: saline.
[2] abbreviates: dose: 25.0 mg/kg/injection, schedule: Q07DX002 (ip), vehicle: Klucel (hydroxypropylcellulose) (HPC).
The mark [3] stands for this setting: dose: 100.0 mg/kg/injection, schedule: Q07DX002 (ip), vehicle: Klucel (hydroxypropylcellulose) (HPC).
Where [4] appears, read: dose: 200.0 mg/kg/injection, schedule: Q07DX002 (ip), vehicle: Klucel (hydroxypropylcellulose) (HPC).
Setting [5] is: dose: 400.0 mg/kg/injection, schedule: Q07DX002 (ip), vehicle: Klucel (hydroxypropylcellulose) (HPC).
Where [6] appears, read: dose: 6.25 mg/kg/injection, schedule: Q07DX002 (ip), vehicle: saline with Tween-80.
The mark [7] stands for this setting: dose: 12.5 mg/kg/injection, schedule: Q07DX002 (ip), vehicle: saline with Tween-80.
Where [8] appears, read: dose: 25.0 mg/kg/injection, schedule: Q07DX002 (ip), vehicle: saline with Tween-80.

Regarding `N#C[C@H](OC1OC(COC2OC(CO)C(O)C(O)C2O)C(O)C(O)C1O)c1ccccc1` (some centres not stated), the T/C was 76 % of control (dose: 50.0 mg/kg/injection, schedule: Q07DX002 (ip), vehicle: saline); 70 % of control (dose: 50.0 mg/kg/injection, schedule: Q07DX002 (ip), vehicle: water); 103 % of control (dose: 100.0 mg/kg/injection, schedule: Q07DX002 (ip), vehicle: saline); 70 % of control (dose: 100.0 mg/kg/injection, schedule: Q07DX002 (ip), vehicle: water); 62 % of control (dose: 200.0 mg/kg/injection, schedule: Q07DX002 (ip), vehicle: saline); 85 % of control (dose: 200.0 mg/kg/injection, schedule: Q07DX002 (ip), vehicle: water). Also, the T/C by setting is: under setting [1], 76 % of control; (dose: 400.0 mg/kg/injection, schedule: Q07DX002 (ip), vehicle: water) 112 % of control; (dose: 800.0 mg/kg/injection, schedule: Q07DX002 (ip), vehicle: saline) 87 % of control; (dose: 800.0 mg/kg/injection, schedule: Q07DX002 (ip), vehicle: water) 83 % of control; (dose: 1600.0 mg/kg/injection, schedule: Q07DX002 (ip), vehicle: saline) 98 % of control; (dose: 1600.0 mg/kg/injection, schedule: Q07DX002 (ip), vehicle: water) 106 % of control.

Take `Cc1ccc(S(=O)(=O)N/N=C/C(Br)=C(/Br)C(=O)O)cc1`: the T/C by setting is: under setting [2], 94 % of control; under setting [3], 124 % of control and 100 % of control; under setting [4], 88 % of control; under setting [5], 72 % of control.

Regarding `C=CS(C=C)=NS(=O)(=O)c1ccc(C)cc1`, the T/C (dose: 1.56 mg/kg/injection, schedule: Q07DX002 (ip), vehicle: Klucel (hydroxypropylcellulose) (HPC)) was 110 % of control; the T/C (dose: 6.25 mg/kg/injection, schedule: Q07DX002 (ip), vehicle: Klucel (hydroxypropylcellulose) (HPC)) is 110 % of control; the T/C (dose: 12.5 mg/kg/injection, schedule: Q07DX002 (ip), vehicle: Klucel (hydroxypropylcellulose) (HPC)) is 111 % of control; the T/C under setting [2] was 94 % of control.

Regarding `CO[C@H](C(=O)[C@@H](O)[C@@H](C)O)[C@@H]1Cc2cc3cc(OC4CC(OC5CC(O)C(O)C(C)O5)C(O)C(C)O4)c(C)c(O)c3c(O)c2C(=O)[C@H]1OC1CC(OC2CC(OC3CC(C)(O)C(O)C(C)O3)C(O)C(C)O2)C(O)C(C)O1` (some centres not stated), the T/C reads like this: (dose: 0.06 mg/kg/injection, schedule: Q07DX002 (ip), vehicle: saline) 114 % of control; (dose: 0.12 mg/kg/injection, schedule: Q07DX002 (ip), vehicle: saline) 99 % of control; (dose: 0.25 mg/kg/injection, schedule: Q07DX002 (ip), vehicle: saline) 161 % of control; (dose: 0.25 mg/kg/injection, schedule: Q07DX003 (ip), vehicle: saline) 75 % of control; (dose: 0.5 mg/kg/injection, schedule: Q07DX003 (ip), vehicle: saline) 65 % of control; (dose: 1.0 mg/kg/injection, schedule: Q07DX003 (ip), vehicle: saline) 49 % of control. The T/C (dose: 2.0 mg/kg/injection, schedule: Q07DX003 (ip), vehicle: saline) was 37 % of control.

With `CS(=O)(=O)OCCCCOS(C)(=O)=O`, the T/C (dose: 32.0 mg/kg/injection, schedule: Q01DX005 (ip), vehicle: saline with Tween-80) is 15 % of control.

On to `CCCCCCCCCCCCN1C(C)=CS/C1=C\C=C\c1scc(C)[n+]1CCCCCCCCCCCC`, for which the T/C runs as follows: (dose: 0.78 mg/kg/injection, schedule: Q07DX002 (ip), vehicle: saline with Tween-80) 124 % of control; (dose: 1.56 mg/kg/injection, schedule: Q07DX002 (ip), vehicle: saline with Tween-80) 98 % of control; (dose: 3.12 mg/kg/injection, schedule: Q07DX002 (ip), vehicle: saline with Tween-80) 79 % of control; under setting [6], 88 % of control; (dose: 12.0 mg/kg/injection, schedule: Q07DX002 (ip), vehicle: saline with Tween-80) 101 % of control; under setting [7], 120 % of control.

Turning to `NC(=S)Nc1cccc2ccccc12`, the T/C under setting [6] is 164 % of control, the T/C under setting [7] was 151 % of control and the T/C under setting [8] was 162 % of control.

Turning to `Nc1ncnc2c1nnn2C1OC(CO)C(O)C1O` (configuration not stated), the T/C under setting [5] was 45 % of control.

Turning to `S=P(N1CC1)(N1CC1)N1CC1`, the T/C is, setting by setting: (dose: 1.5 mg/kg/injection, schedule: Q07DX003 (ip), vehicle: saline) 99 % of control; (dose: 3.0 mg/kg/injection, schedule: Q07DX003 (ip), vehicle: saline) 50 % of control; (dose: 6.0 mg/kg/injection, schedule: Q07DX003 (ip), vehicle: saline) 55 % of control.

On to `C=C1C(=O)OC2/C=C(\C)CC(O)/C=C(/CO)CC(OC(=O)/C(C)=C/C)C12` (configuration not stated), for which the T/C (dose: 7.5 mg/kg/injection, schedule: Q07DX002 (ip), vehicle: saline + alcohol) was 223 % of control; the T/C (dose: 30.0 mg/kg/injection, schedule: Q07DX002 (ip), vehicle: saline + alcohol) is 168 % of control; the T/C (dose: 60.0 mg/kg/injection, schedule: Q07DX002 (ip), vehicle: saline + alcohol) was 441 % of control.

As for `Nc1nccc2c1ncn2C1OC(CO)C(O)C1O` (configuration not stated), the T/C (dose: 4.6 mg/kg/injection, schedule: Q03HX024 (ip), vehicle: saline with Tween-80) is 103 % of control; the T/C (dose: 9.3 mg/kg/injection, schedule: Q03HX024 (ip), vehicle: saline with Tween-80) was 114 % of control; the T/C (dose: 18.7 mg/kg/injection, schedule: Q03HX024 (ip), vehicle: saline with Tween-80) was 82 % of control and 92 % of control; the T/C (dose: 75.0 mg/kg/injection, schedule: Q03HX024 (ip), vehicle: saline with Tween-80) was 93 % of control.

Turning to `Cc1ccc(NC(=O)Oc2ccc(Br)cc2Br)c([N+](=O)[O-])c1`, the T/C is 111 % of control and 102 % of control under setting [8]; 51 % of control and 62 % of control (dose: 50.0 mg/kg/injection, schedule: Q07DX002 (ip), vehicle: saline with Tween-80); 86 % of control and 94 % of control (dose: 100.0 mg/kg/injection, schedule: Q07DX002 (ip), vehicle: saline with Tween-80); 65 % of control and 79 % of control (dose: 200.0 mg/kg/injection, schedule: Q07DX002 (ip), vehicle: saline with Tween-80).

Turning to `ClCC[N+]12CC[N+](CCCl)(CC1)C2`, the T/C was 115 % of control and 123 % of control (dose: 12.5 mg/kg/injection, schedule: Q07DX002 (ip), vehicle: saline); 56 % of control (dose: 12.5 mg/kg/injection, schedule: Q07DX003 (ip), vehicle: saline); 84 % of control (dose: 12.5 mg/kg/injection, schedule: Q07DX003 (ip), vehicle: water); 65 % of control (dose: 25.0 mg/kg/injection, schedule: Q07DX003 (ip), vehicle: saline); 78 % of control (dose: 25.0 mg/kg/injection, schedule: Q07DX003 (ip), vehicle: water); 72 % of control (dose: 50.0 mg/kg/injection, schedule: Q07DX003 (ip), vehicle: saline). The T/C runs as follows: (dose: 50.0 mg/kg/injection, schedule: Q07DX003 (ip), vehicle: water) 44 % of control; (dose: 100.0 mg/kg/injection, schedule: Q07DX003 (ip), vehicle: saline) 123 % of control; (dose: 100.0 mg/kg/injection, schedule: Q07DX003 (ip), vehicle: water) 45 % of control; (dose: 200.0 mg/kg/injection, schedule: Q07DX003 (ip), vehicle: saline) 70 % of control; under setting [1], 47 % of control and 52 % of control; (dose: 400.0 mg/kg/injection, schedule: Q07DX003 (ip), vehicle: saline) 115 % of control.

On to `Oc1c(Cl)cc(Cl)cc1C=NCCSc1ccc(Cl)cc1`, for which the T/C reads like this: (dose: 50.0 mg/kg/injection, schedule: Q07DX002 (ip), vehicle: Klucel (hydroxypropylcellulose) (HPC)) 85 % of control; under setting [3], 78 % of control; under setting [4], 162 % of control.
